This is an account of results in US10414760B2, “Cytochrome P450 inhibitors and uses thereof” (ANGION BIOMEDICA CORP., priority 2016, dated 2019).

The term IC50 denotes the concentration that gives 50% inhibition.

What all share (format): biochemical
The target of assay [1] is T1, CYP26 (Mus musculus, UniProt O55127).
T1 construct: tissue Xenotech; host or cells: liver microsomes of ATRA-treated mice
T1 sequence (O55127 1-497): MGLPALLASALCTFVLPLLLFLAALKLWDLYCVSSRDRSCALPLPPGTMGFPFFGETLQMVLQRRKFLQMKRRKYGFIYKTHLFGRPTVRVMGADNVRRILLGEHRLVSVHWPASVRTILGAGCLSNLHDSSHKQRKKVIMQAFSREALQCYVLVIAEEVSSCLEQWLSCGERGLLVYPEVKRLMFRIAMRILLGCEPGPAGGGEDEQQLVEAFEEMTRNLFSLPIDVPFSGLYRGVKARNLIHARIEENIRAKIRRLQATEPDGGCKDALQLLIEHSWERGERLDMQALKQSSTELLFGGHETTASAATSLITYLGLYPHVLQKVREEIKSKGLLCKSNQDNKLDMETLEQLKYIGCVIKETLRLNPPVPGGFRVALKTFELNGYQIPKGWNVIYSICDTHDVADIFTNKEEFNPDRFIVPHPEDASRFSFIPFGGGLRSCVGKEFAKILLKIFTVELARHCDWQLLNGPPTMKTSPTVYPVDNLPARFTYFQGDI
Nature of the assay: CYP26 inhibition: substrate depletion assay for ATRA metabolism in mouse microsomes. On the procedure: (§1) Serum Testosterone and PSA and Tumor Testosterone Analysis. Tumor tissue obtained from mice will be homogenized in phosphate buffer (pH 7.4, 0.1 M) and homogenates centrifuged at 2000 g for 20 min. Testosterone concentrations in the serum and in the clear tissue homogenate supernatant will be determined with the ELISA kit from R&D Systems (Catalog # KGR010). Serum PSA concentrations will be measured using a PSA ELISA kit with a serum dilution according to the manufacturers instructions. • c. Breast cancer. To test the efficacy of compounds embodied herein against breast cancer, nude mice carrying human breast cancer lines that are estrogen receptor and Aromatase positive will be used. Cells will be grown in vitro and 2 million will be inoculated in Matrigel (50:50 volume ratio of cells to Matrigel). Cells will be distributed by s.c. injection at the right and left flanks or at the orthotopic sitest in 6 to 8 week old athymic nude mice (BALB/c strain) or severe combined immunodeficient mice under anesthesia. Animals will be treated with compound for 4 weeks, at which point animals will be sacrificed and collect blood samples and tumor tissue for the determination of serum and tumor estrogen levels. Tumors will be excised and a portion will be fixed in formalin for subsequent histochemical and immuno-histochemical analysis. The remainder will be snap frozen in liquid nitrogen and stored at −80° C. • 12. CYP26 inhibition activity. A substrate depletion assay for ATRA metabolism in mouse microsomes is used. […] The assay is run in a 100 μL reaction volume and stopped with an equal volume of methanol. […] CYP17 inhibition assay: In vitro assays for CYP17 17α-hydroxylase and C17,20-lyase activity, assays using rat and dog testis microsomes and ELISA kits from commercial vendors for the detection of formed products are employed. Incubation of rat testis microsomes with the substrate progesterone (P4) results, through the CYP17 17α-hydroxylase and C17,20-lyase activities, in a marked production of androstenedione (AD) in a time and enzyme-concentration dependent manner. […] In another control, microsomes isolated from rat livers, which are known to express very little or no CYP17, are shown to be devoid of this activity. Assays are also used that determine the activity of 17α-hydroxylase activity using P4 as a substrate and detecting HOP4 as a product (using dog testis microsomes) and the activity of C17,20-lyase by using HOP4 as a substrate and AD as a product (rat testis microsomes). • 14. CYP19 inhibition assay: For in vitro assays of CYP19 aromatase activity, commercially available CYP19 enzyme preparations (e.g. BD Gentest Supersomes Catalog #456260) and assay kits (e.g. BD Gentest Catalog #459520) are employed according to the manufacturers instructions.
CYP26 inhibition. […] The assay was run in a 100 μL reaction volume and stopped with an equal volume of methanol. […] Other compounds of formula (I) are similarly potent, for example with an IC50 of 1.6 nM.

Assay [2] has as its target T2, CYP17 (Rattus norvegicus, UniProt P11715).
T2 construct: using rat and dog testis microsomes and ELISA kits from commercial vendors; from tissue; host or cells: rat testis microsomes
T2 sequence (P11715 1-507): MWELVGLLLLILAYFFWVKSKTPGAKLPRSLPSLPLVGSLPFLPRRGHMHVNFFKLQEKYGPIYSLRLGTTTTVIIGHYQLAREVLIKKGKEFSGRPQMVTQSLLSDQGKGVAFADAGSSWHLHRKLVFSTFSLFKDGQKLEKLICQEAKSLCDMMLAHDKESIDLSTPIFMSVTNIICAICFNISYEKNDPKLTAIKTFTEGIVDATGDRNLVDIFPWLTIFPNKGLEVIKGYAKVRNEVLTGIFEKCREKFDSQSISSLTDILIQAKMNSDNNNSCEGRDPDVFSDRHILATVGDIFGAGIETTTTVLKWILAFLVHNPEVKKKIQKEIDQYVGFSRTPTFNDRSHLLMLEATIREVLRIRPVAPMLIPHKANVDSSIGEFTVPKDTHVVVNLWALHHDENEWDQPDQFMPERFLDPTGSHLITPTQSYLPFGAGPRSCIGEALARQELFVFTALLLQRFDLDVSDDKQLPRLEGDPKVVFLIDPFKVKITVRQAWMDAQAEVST
Nature of the assay: CYP17 inhibition: 17α hydroxylase and C17,20 lyase activity in testis microsomes, ELISA detection. Conditions: which microsome assay (rat or dog testis) not specified. The procedure: Serum Testosterone and PSA and Tumor Testosterone Analysis. Tumor tissue obtained from mice will be homogenized in phosphate buffer (pH 7.4, 0.1 M) and homogenates centrifuged at 2000 g for 20 min. Testosterone concentrations in the serum and in the clear tissue homogenate supernatant will be determined with the ELISA kit from R&D Systems (Catalog # KGR010). Serum PSA concentrations will be measured using a PSA ELISA kit with a serum dilution according to the manufacturers instructions. • c. Breast cancer. To test the efficacy of compounds embodied herein against breast cancer, nude mice carrying human breast cancer lines that are estrogen receptor and Aromatase positive will be used. Cells will be grown in vitro and 2 million will be inoculated in Matrigel (50:50 volume ratio of cells to Matrigel). Cells will be distributed by s.c. injection at the right and left flanks or at the orthotopic sitest in 6 to 8 week old athymic nude mice (BALB/c strain) or severe combined immunodeficient mice under anesthesia. Animals will be treated with compound for 4 weeks, at which point animals will be sacrificed and collect blood samples and tumor tissue for the determination of serum and tumor estrogen levels. Tumors will be excised and a portion will be fixed in formalin for subsequent histochemical and immuno-histochemical analysis. The remainder will be snap frozen in liquid nitrogen and stored at −80° C. • 12. CYP26 inhibition activity. […] The assay is run in a 100 μL reaction volume and stopped with an equal volume of methanol. […] CYP17 inhibition assay: In vitro assays for CYP17 17α-hydroxylase and C17,20-lyase activity, assays using rat and dog testis microsomes and ELISA kits from commercial vendors for the detection of formed products are employed. […] Assays are also used that determine the activity of 17α-hydroxylase activity using P4 as a substrate and detecting HOP4 as a product (using dog testis microsomes) and the activity of C17,20-lyase by using HOP4 as a substrate and AD as a product (rat testis microsomes). • 14.
CYP17 inhibition. In vitro assays for CYP17 17α hydroxylase and C17,20 lyase activity using rat and dog testis microsomes and ELISA kits from commercial vendors for the detection of formed products were employed. […] Assays were also used that determine the activity of 17α hydroxylase activity using P4 as a substrate and detecting HOP4 as a product (using dog testis microsomes) and the activity of C17,20 lyase by using HOP4 as a substrate and AD as a product (rat testis microsomes).
(In general: An ELISA detects its analyte on a solid surface through an enzyme-linked reagent.)

The target of assay [3] is T3, CYP19 (Homo sapiens, UniProt P11511).
T3 construct: purchased BD Gentest 456260
T3 sequence (P11511 1-503): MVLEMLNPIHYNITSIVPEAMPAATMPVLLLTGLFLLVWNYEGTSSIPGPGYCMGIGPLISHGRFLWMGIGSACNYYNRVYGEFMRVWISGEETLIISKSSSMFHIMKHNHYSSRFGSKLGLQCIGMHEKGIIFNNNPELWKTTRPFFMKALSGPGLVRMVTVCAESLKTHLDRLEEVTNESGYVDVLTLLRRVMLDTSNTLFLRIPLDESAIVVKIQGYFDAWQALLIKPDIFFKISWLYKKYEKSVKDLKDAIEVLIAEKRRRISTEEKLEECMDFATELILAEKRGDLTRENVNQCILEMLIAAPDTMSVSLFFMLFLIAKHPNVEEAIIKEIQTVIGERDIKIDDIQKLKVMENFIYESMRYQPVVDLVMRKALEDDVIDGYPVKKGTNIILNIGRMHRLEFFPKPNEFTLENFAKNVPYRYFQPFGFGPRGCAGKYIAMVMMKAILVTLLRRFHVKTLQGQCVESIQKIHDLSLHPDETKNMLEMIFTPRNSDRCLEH
Nature of the assay: CYP19 inhibition: commercially available recombinant enzyme and assay kit. The procedure:
as §1
Selectivity for other P450 enzymes. To assess the selectivity of compounds embodied herein, activity was evaluated first against CYP3A4 and CYP19 using commercially available recombinant enzymes and assay kits. To calculate a selectivity factor, the IC50 for a particular P450 enzyme was divided by the IC50 in the CYP17 combination assay.

Consider `CCC(C(c1ccc2nc(N)sc2c1)n1ccnc1)N(C)C` (stereo not shown) [Example 1, 6-(2-(Dimethylamino)-1-(1H-imidazol-1-yl)butyl)benzo[d]thiazol-2-amine], for which the IC50 was less than 1 µM in assay [1], less than 5 µM in assay [2] and less than 1 µM in assay [3].

Consider `CCC(C(c1ccc2nc(NC(N)=O)sc2c1)n1ccnc1)N(C)C` (stereo not shown) [Example 2, 1-(6-(2-(Dimethylamino)-1-(1H-imidazol-1-yl)butyl)benzo[d]thiazol-2-yl)urea], for which the IC50 is less than 5 µM in assay [2] and less than 1 µM in assay [3].

Consider `CCC(C(c1ccc2nc(Br)sc2c1)n1ccnc1)N(C)C` (stereo not shown) [Example 8, 1-(2-Bromobenzo[d]thiazol-6-yl)-1-(1H-imidazol-1-yl)-N,N-dimethylbutan-2-amine], for which the figures for the IC50 in assay [1], in assay [2] and in assay [3] were less than 1 µM, less than 5 µM and less than 1 µM, respectively.

Take `CCC(C(c1ccc2nc(NC(C)=O)sc2c1)n1ccnc1)N(C)CC` (stereo not shown) [Example 9, N-(6-(2-(Ethyl(methyl)amino)-1-(1H-imidazol-1-yl)butyl)benzo[d]thiazol-2-yl)acetamide]: the IC50 in assay [2] is less than 5 µM; in assay [3], less than 1 µM.

For `CCC(C(c1ccc2nc(Cl)sc2c1)n1ccnc1)N(C)CC` (stereo not shown) [Example 10, 1-(2-Chlorobenzo[d]thiazol-6-yl)-N-ethyl-1-(1H-imidazol-1-yl)-N-methylbutan-2-amine], the IC50 in assay [2] is less than 5 µM; in assay [3], less than 1 µM.

As to `CCC(C(c1ccc2nc(C(=O)OC)sc2c1)n1ccnc1)N(C)C` (stereo not shown) [Example 12, Methyl 6-(2-(dimethylamino)-1-(1H-imidazol-1-yl)butyl)benzo[d]thiazole-2-carboxylate], the IC50 was less than 5 µM in assay [2] and less than 1 µM in assay [3].

As for `CCC(C(c1ccc2nc(C(=N)OC)sc2c1)n1ccnc1)N(C)C` (stereo not shown) [Example 13, Methyl 6-(2-(dimethylamino)-1-(1H-imidazol-1-yl)butyl)benzo[d]thiazole-2-carbimidate], the IC50 in assay [2] is less than 5 µM; in assay [3], less than 1 µM.

As to `CCC(C(c1ccc2nc(C(N)=O)sc2c1)n1ccnc1)N(C)C` (stereo not shown) [Example 14, 6-(2-(Dimethylamino)-1-(1H-imidazol-1-yl)butyl)benzo[d]thiazole-2-carboxamide], the IC50 in assay [2] was less than 5 µM; in assay [3], less than 1 µM.

In the case of `CCC(C(c1ccc2ncsc2c1)n1ccnc1)N(C)C` (stereo not shown) [Example 15, 1-(Benzo[d]thiazol-6-yl)-1-(1H-imidazol-1-yl)-N,N-dimethylbutan-2-amine], the IC50 in assay [2] was less than 5 µM; in assay [3] it was less than 1 µM.

Turning to `CCC(CC)C(c1ccc2nc(N)sc2c1)n1ccnc1` (stereo not shown) [Example 27, 6-(2-Ethyl-1-(1H-imidazol-1-yl)butyl)benzo[d]thiazol-2-amine], the IC50 is less than 5 µM in assay [2] and less than 1 µM in assay [3].

Turning to `CCC(CC)C(c1ccc2nc(Br)sc2c1)n1ccnc1` (stereo not shown) [Example 28, 2-bromo-6-(2-ethyl-1-(1H-imidazol-1-yl)butyl)benzo[d]thiazole], the half-inhibitory concentration (IC50) in assay [2] is less than 5 µM; in assay [3] it was less than 1 µM.

Take `CCC(C(c1ccc2nc(N)sc2c1)n1ccnc1)N(C)CC` (stereo not shown) [Example 32, 6-(2-(Ethyl(methyl)amino)-1-(1H-imidazol-1-yl)butyl)benzo[d]thiazol-2-amine]: the concentration for half-maximal inhibition (IC50) in assay [2] is less than 5 µM; in assay [3], less than 1 µM.

Regarding `CCC(C(c1ccc2nc(Br)sc2c1)n1ccnc1)N(C)CC` (stereo not shown) [Example 36, 1-(2-Bromobenzo[d]thiazol-6-yl)-N-ethyl-1-(1H-imidazol-1-yl)-N-methylbutan-2-amine], the IC50 in assay [2] is less than 5 µM; in assay [3], less than 1 µM.
